In patent US11566057B2, “Long-acting co-agonists of the glucagon and GLP-1 receptors” (Merck Sharp & Dohme Corp., priority 2017, dated 2023):
Where two headings read alike, the source gives them in different places. Numbered stars: 1 amine (or outer) side, 2 acyl side, 3 side chain; on linkers, the order of the positions; unused ones are H or OH. Square brackets hold non-standard residues; d marks the D form. Side chains are listed from the residue outwards. Peptide text beside a SMILES is read from it. * marks the point of attachment. C18 diacid = O=C(O)CCCCCCCCCCCCCCCCC(=O)*; C16 diacid = O=C(O)CCCCCCCCCCCCCCC(=O)*; γGlu = O=C(O)[C@H](CCC(=O)[*:2])N[*:1]; Met(O2) = CS(=O)(=O)CC[C@H](N)C(=O)O; αMeD = C[C@](N)(CC(=O)O)C(=O)O; AEEA = NCCOCCOCC(=O)O; Aib = CC(C)(N)C(=O)O

What was measured:
[1] = target: T1, human GCGR (Homo sapiens, UniProt P47871); experiment: cAMP activity assay at the Glucagon receptor (GCGR); format: cell-based; settings: for hGCGR/hGLP1R (hTone): ratio of GCGR EC50 to GLP1R EC50
T1 construct: expressed in transfected cells; growth medium holds Blasticidin and Hygromycin
How it was run: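 Peptides serially diluted from DMSO (10 points) and added to frozen-stock cells bearing human GLP1R (10,000 cells/well) or GCGR (30,000 cells/well), 1 h at RT, dark. EC50 by four-parameter logistic fit of HitHunter cAMPXS luminescence, read following overnight RT incubation.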

[2] = target: T2, human GLP1R (Homo sapiens, UniProt P43220); experiment: cAMP activity assay at the GLP-1 receptor (GLP1R); format: cell-based
T2 construct: expressed in transfected cells; growth medium holds Blasticidin and Hygromycin
Method: Activity of the peptides at the Glucagon receptor (GCGR) and GLP-1 receptor (GLP1R) was measured in a cAMP activity assay.
GCG/GLP-1 receptor co-agonist peptides were dissolved in 100% DMSO (dimethyl sulfoxide) and serially diluted to generate 10 point titrations. The peptide solutions were then transferred into 384-well assay plates (150 nL/well). Assay ready frozen cells expressing human GLP1R or human GCGR were suspended in growth media consisting of DMEM medium (GIBCO®), 10% FBS (GIBCO®), 1×NEAA(GIBCO®), 1×P/S (GIBCO®), 10 ug/mL Blasticidin (GIBCO®) and 200 μg/mL Hygromycin (GIBCO®). […] The cell suspensions (15 μL) were then added to the assay plates containing the peptide solutions (30,000 cells/well for human GCGR; 10,000 cells/well for human GLP1R). The cells were incubated for 1 hour at room temperature in the dark. Production of cAMP was determined using HitHunter™ cAMPXS kits (DiscoverX) following manufacturer protocol. The plates were incubated for overnight at room temperature in the dark. Luminescence was measured using an EnVision Multilabel plate reader (Perkin Elmer). Native GLP-1 and Glucagon (Bachem) are used as control peptides. EC50 values were calculated using uses a 4 parameter logistic fit based on the Levenberg-Marquardt algorithm.

[3] = summary statement: EC50 at each of the glucagon and GLP-1 receptors, read-out: EC50 at the glucagon receptor
[4] = summary statement: EC50 at each of the glucagon and GLP-1 receptors, read-out: EC50 at the GLP-1 receptor
[5] = cells expressing human GLP1R, cAMP production, buffer with or without 20% human serum (not stated which), read-out: GLP1R EC50 human

T1 sequence (P47871 26-477): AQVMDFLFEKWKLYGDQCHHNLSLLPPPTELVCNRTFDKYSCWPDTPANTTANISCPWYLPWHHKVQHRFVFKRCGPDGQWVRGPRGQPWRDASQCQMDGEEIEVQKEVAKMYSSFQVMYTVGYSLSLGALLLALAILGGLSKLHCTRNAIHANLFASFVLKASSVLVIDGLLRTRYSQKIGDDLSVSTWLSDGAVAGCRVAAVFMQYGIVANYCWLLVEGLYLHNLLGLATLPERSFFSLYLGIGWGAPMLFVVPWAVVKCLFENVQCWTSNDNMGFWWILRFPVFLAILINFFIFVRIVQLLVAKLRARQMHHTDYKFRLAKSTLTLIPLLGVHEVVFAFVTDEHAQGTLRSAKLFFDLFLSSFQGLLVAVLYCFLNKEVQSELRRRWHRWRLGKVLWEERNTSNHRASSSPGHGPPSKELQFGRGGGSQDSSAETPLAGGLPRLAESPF
T2 sequence (P43220 24-463): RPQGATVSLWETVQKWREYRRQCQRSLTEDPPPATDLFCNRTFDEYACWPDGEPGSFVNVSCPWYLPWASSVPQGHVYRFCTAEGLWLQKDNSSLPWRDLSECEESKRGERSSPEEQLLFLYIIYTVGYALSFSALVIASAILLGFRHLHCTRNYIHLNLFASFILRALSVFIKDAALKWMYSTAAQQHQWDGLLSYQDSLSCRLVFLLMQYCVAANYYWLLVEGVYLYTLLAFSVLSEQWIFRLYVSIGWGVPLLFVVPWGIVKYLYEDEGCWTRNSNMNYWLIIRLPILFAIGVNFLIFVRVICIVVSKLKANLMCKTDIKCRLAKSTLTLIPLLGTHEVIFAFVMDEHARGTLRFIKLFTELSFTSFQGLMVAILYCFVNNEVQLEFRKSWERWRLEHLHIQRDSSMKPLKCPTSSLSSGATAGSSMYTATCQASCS

SMILES | EC50 ([1]; cells expressing human GCGR, cAMP production, buffer with or without 20% human serum (not stated which), read-out: GCGR EC50 human) | hGCGR/hGLP1R (hTone) [1] | EC50 [1, 3] | EC50 [2, 4] | EC50 [2, 5]
CC(C)C[C@H](NC(=O)[C@H](Cc1ccc(O)cc1)NC(=O)[C@H](CCCCN)NC(=O)[C@H](CO)NC(=O)[C@H](Cc1ccc(O)cc1)NC(=O)[C@H](CC(=O)O)NC(=O)[C@H](CO)NC(=O)[C@@H](NC(=O)[C@H](Cc1ccccc1)NC(=O)[C@@H](NC(=O)CNC(=O)[C@H](CCC(N)=O)NC(=O)C(C)(C)NC(=O)[C@@H](N)Cc1c[nH]cn1)[C@@H](C)O)[C@@H](C)O)C(=O)N[C@@H](CC(=O)O)C(=O)N[C@@H](C)C(=O)N[C@@H](CCCNC(=N)N)C(=O)N[C@@H](C)C(=O)N[C@@H](C)C(=O)N[C@@H](CCCCNC(=O)COCCOCCNC(=O)CC[C@H](NC(=O)CCCCCCCCCCCCCCC(=O)O)C(=O)O)C(=O)N[C@@H](CC(=O)O)C(=O)N[C@@H](Cc1ccccc1)C(=O)N[C@H](C(=O)N[C@@H](CCC(N)=O)C(=O)N[C@@H](Cc1c[nH]c2ccccc12)C(=O)N[C@@H](CC(C)C)C(=O)N[C@@H](CCS(C)(=O)=O)C(=O)N[C@@](C)(CC(=O)O)C(=O)N[C@H](C(N)=O)[C@@H](C)O)C(C)C [TP627] (H-H[Aib]QGTFTSDYSKYLDARAAK([AEEA-γGlu-C16 diacid])DFVQWL[Met(O2)][αMeD]T-NH2; N-terminus assumed) | 0.14 nM | 0.6 | < 5 nM | < 5 nM | –
CC(C)C[C@H](NC(=O)[C@H](Cc1ccc(O)cc1)NC(=O)[C@H](CCCCN)NC(=O)[C@H](CO)NC(=O)[C@H](Cc1ccc(O)cc1)NC(=O)[C@H](CC(=O)O)NC(=O)[C@H](CO)NC(=O)[C@@H](NC(=O)[C@H](Cc1ccccc1)NC(=O)[C@@H](NC(=O)CNC(=O)[C@H](CCC(N)=O)NC(=O)C(C)(C)NC(=O)[C@@H](N)Cc1c[nH]cn1)[C@@H](C)O)[C@@H](C)O)C(=O)N[C@@H](CCC(=O)O)C(=O)N[C@@H](C)C(=O)N[C@@H](CCCNC(=N)N)C(=O)N[C@@H](C)C(=O)N[C@@H](C)C(=O)N[C@@H](CCCCNC(=O)COCCOCCNC(=O)COCCOCCNC(=O)CC[C@H](NC(=O)CCCCCCCCCCCCCCCCC(=O)O)C(=O)O)C(=O)N[C@@H](CC(=O)O)C(=O)N[C@@H](Cc1ccccc1)C(=O)N[C@H](C(=O)N[C@@H](CCC(N)=O)C(=O)N[C@@H](Cc1c[nH]c2ccccc12)C(=O)N[C@@H](CC(C)C)C(=O)N[C@@H](CCS(C)(=O)=O)C(=O)N[C@@H](CC(=O)O)C(=O)N[C@H](C(N)=O)[C@@H](C)O)C(C)C [TP674] (H-H[Aib]QGTFTSDYSKYLEARAAK([AEEA-AEEA-γGlu-C18 diacid])DFVQWL[Met(O2)]DT-NH2; N-terminus assumed) | – | 2.4 | < 5 nM | < 5 nM | 0.45 nM
CC(C)C[C@H](NC(=O)[C@H](Cc1c[nH]c2ccccc12)NC(=O)[C@H](CCC(N)=O)NC(=O)[C@@H](NC(=O)[C@H](Cc1ccccc1)NC(=O)[C@H](CC(=O)O)NC(=O)[C@H](CCCCNC(=O)COCCOCCNC(=O)COCCOCCNC(=O)CC[C@H](NC(=O)CCCCCCCCCCCCCCCCC(=O)O)C(=O)O)NC(=O)[C@H](C)NC(=O)[C@H](C)NC(=O)[C@H](CCCNC(=N)N)NC(=O)[C@H](C)NC(=O)[C@](C)(CC(=O)O)NC(=O)[C@H](CC(C)C)NC(=O)[C@H](Cc1ccc(O)cc1)NC(=O)[C@H](CCCCN)NC(=O)[C@H](CO)NC(=O)[C@H](Cc1ccc(O)cc1)NC(=O)[C@H](CC(=O)O)NC(=O)[C@H](CO)NC(=O)[C@@H](NC(=O)[C@H](Cc1ccccc1)NC(=O)[C@@H](NC(=O)CNC(=O)[C@H](CCC(N)=O)NC(=O)C(C)(C)NC(=O)[C@@H](N)Cc1c[nH]cn1)[C@@H](C)O)[C@@H](C)O)C(C)C)C(=O)N[C@@H](CCS(C)(=O)=O)C(=O)N[C@@](C)(CC(=O)O)C(=O)N[C@H](C(N)=O)[C@@H](C)O [TP610] (H-H[Aib]QGTFTSDYSKYL[αMeD]ARAAK([AEEA-AEEA-γGlu-C18 diacid])DFVQWL[Met(O2)][αMeD]T-NH2; N-terminus assumed) | – | <0.01 | – | – | > 5 nM
